One test deals with T1, FES (Homo sapiens, UniProt P07332).
T1 construct: the DNA-tagged SH2 domain concentrations used in this study were <0.1 nM; made in house; host or cells: HEK293 (transient transfection; unpurified extract)
The test is described as follows: biochemical. To be noted: for remaining activity at 10 µM: read-out: percent of DMSO vehicle control. The class given is binding.

Another test deals with T2, MIST (Homo sapiens, UniProt Q7Z7G1).
T2 construct: the DNA-tagged SH2 domain concentrations used in this study were <0.1 nM; made in house; host or cells: HEK293 (transient transfection, unpurified extract)
T2 sequence (Q7Z7G1 309-419 limits assumed): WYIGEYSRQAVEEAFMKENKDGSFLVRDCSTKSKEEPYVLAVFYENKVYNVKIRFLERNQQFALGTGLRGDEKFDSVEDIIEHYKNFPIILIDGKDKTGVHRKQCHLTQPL
Briefly: biochemical. The class given is binding. The conditions noted are these: for percent of DMSO vehicle control at 10 µM / remaining activity at 10 µM: read-out: percent of DMSO vehicle control.

The next test has as its target T3, CBL (Homo sapiens, UniProt P22681).
T3 construct: the DNA-tagged SH2 domain concentrations used in this study were <0.1 nM; made in house; host or cells: HEK293 (transient transfection; unpurified extract)
T3 sequence (P22681 249-351 limits assumed): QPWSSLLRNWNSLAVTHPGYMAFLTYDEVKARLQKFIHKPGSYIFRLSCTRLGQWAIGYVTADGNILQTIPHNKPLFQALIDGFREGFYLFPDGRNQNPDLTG
The test is described as follows: biochemical. It counts as binding.

The target of the next test is T4, ZAP70(SH2dom1.dom2.) (Homo sapiens, UniProt P43403).
T4 sequence (P43403 1-254 limits assumed): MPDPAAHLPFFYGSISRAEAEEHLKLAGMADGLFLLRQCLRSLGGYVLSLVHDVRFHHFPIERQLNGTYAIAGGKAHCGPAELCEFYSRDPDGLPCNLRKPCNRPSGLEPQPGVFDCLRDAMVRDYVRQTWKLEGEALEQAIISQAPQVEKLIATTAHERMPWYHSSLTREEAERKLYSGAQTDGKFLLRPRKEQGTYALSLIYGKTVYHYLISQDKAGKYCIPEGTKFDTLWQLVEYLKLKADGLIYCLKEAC
To be noted: primary screen, 10 μM.

A further test deals with PTPN11 (SH2dom.C-term.). More on the design: method as in Gay et al., International Journal of Cancer, 1999. To be noted: ELISA; ref Gay et al., International Journal of Cancer, 1999; cited from earlier work.
The next test deals with FYN. More on the design: method as in Gay et al., International Journal of Cancer, 1999. The conditions noted are these: ELISA; ref Gay et al., International Journal of Cancer, 1999; cited from earlier work.
The test system of another test is PIK3R1 (SH2dom.N-term.). More on the design: method as in Gay et al., International Journal of Cancer, 1999. The conditions noted are these: ELISA; ref Gay et al., International Journal of Cancer, 1999; cited from earlier work.
A further test deals with PTPN11 (SH2dom.N-term.). Set-up: method as in Gay et al., International Journal of Cancer, 1999. To be noted: ELISA; ref Gay et al., International Journal of Cancer, 1999; cited from earlier work.
A further test has as its system GRB2. More on the design: method as in Gay et al., International Journal of Cancer, 1999. The conditions noted are these: ELISA; ref Gay et al., International Journal of Cancer, 1999; cited from earlier work.
The target of a further test is SOCS2. More on the design: method as in Ramachandran et al., Nature Communications, 2023. The conditions noted are these: ITC; ref Ramachandran et al., Nature Communications, 2023; cited from earlier work.
Test [1] has as its target STAT6. More on the design: method as in Bai et al., Cancer Cell, 2019. To be noted: FP and BLI; ref Bai et al., Cancer Cell, 2019; cited from earlier work.
In another test the target is STAT1. More on the design: method as in Bai et al., Cancer Cell, 2019. The conditions noted are these: FP and BLI; ref Bai et al., Cancer Cell, 2019; cited from earlier work.
The target of another test is STAT3. More on the design: method as in Bai et al., Cancer Cell, 2019. To be noted: FP and BLI; ref Bai et al., Cancer Cell, 2019; cited from earlier work.
For the next test, the target named is STAT2. More on the design: method as in Bai et al., Cancer Cell, 2019. The conditions noted are these: FP and BLI; ref Bai et al., Cancer Cell, 2019; cited from earlier work.
For another test, the target named is STAT5A. Set-up: method as in Bai et al., Cancer Cell, 2019. To be noted: FP and BLI; ref Bai et al., Cancer Cell, 2019; cited from earlier work.
In test [2] the target is STAT5B. Set-up: method as in Bai et al., Cancer Cell, 2019. To be noted: FP and BLI; ref Bai et al., Cancer Cell, 2019; cited from earlier work.
Test [3] deals with STAT4. More on the design: method as in Bai et al., Cancer Cell, 2019. To be noted: FP and BLI; ref Bai et al., Cancer Cell, 2019; cited from earlier work.
The subject of test [4] is STAT6. More on the design: method as in Mandal et al., Journal of Medicinal Chemistry, 2015. To be noted: FP; ref Mandal et al., Journal of Medicinal Chemistry, 2015; cited from earlier work.
The target of test [5] is STAT6. Set-up: method as in earlier work. The conditions noted are these: FP; ref Elumalai et al., Angewandte Chemie International Edition, 2015; cited from earlier work.
For test [6], the target named is STAT4. Set-up: method as in earlier work. To be noted: FP; ref Elumalai et al., Angewandte Chemie International Edition, 2015; cited from earlier work.
The target in test [7] is STAT5B. Set-up: method as in earlier work. The conditions noted are these: FP; ref Elumalai et al., Angewandte Chemie International Edition, 2015; cited from earlier work.

Where two headings read alike, the source gives them in different places. Non-standard residues stand in square brackets, D forms with d. Residues, ends and D or L forms follow the SMILES beside them. *: point of attachment. pY = N[C@@H](Cc1ccc(OP(=O)(O)O)cc1)C(=O)O; Caffeoyl = O=C(/C=C/c1ccc(O)c(O)c1)*

T1 sequence (P07332 460-549 limits assumed): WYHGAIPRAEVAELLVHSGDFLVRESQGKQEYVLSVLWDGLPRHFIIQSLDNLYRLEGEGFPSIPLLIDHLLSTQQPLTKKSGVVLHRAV

Take `CC[C@H](C)[C@H](NC(=O)[C@H](CCC(=O)O)NC(=O)[C@H](CCC(=O)O)NC(=O)[C@H](Cc1ccc(OP(=O)(O)O)cc1)NC(C)=O)C(=O)N[C@@H](CCC(=O)O)C(N)=O` [Ac-pYEEIE-NH2] (Ac-[pY]EEIE-NH2): at FES, the affinity, expressed as Kd, was 4.2 µM. Further, the “percent of DMSO vehicle control” value at FES (primary screen, 10 μM) was found to be 24.1±2.4%; at MIST (primary screen, 10 μM), 55.1%; at CBL (primary screen, 10 μM) it was 121.6%; on ZAP70(SH2dom1.dom2.), 134.0%.
On to `CC(=O)N[C@@H](Cc1ccc(CP(=O)(O)O)cc1)C(=O)NC1(C(=O)N[C@@H](CC(N)=O)C(=O)NCCCc2c(O)ccc3ccccc23)CCCCC1` [CGP78850], for which the IC50 in the test with PTPN11 (SH2dom.C-term.) is greater than 50 µM; in the test with FYN, greater than 50 µM; with PIK3R1 (SH2dom.N-term.) it was greater than 50 µM; in the test with PTPN11 (SH2dom.N-term.), greater than 50 µM; in the test on GRB2 it was 0.04 µM. Besides, the remaining activity at 10 µM at FES came out at 52 ± 0.5%. On MIST, the percent of DMSO vehicle control at 10 µM is 102 ± 2.3%.
For `CC[C@H](C)[C@H](NC(=O)[C@H](CCC(=O)O)NC(=O)[C@H](CCC(=O)O)NC(=O)[C@H](Cc1ccc(OP(=O)(O)O)cc1)NC(=O)/C=C/c1ccc(O)c(O)c1)C(=O)N[C@@H](CCC(=O)O)C(=O)O` [Caffeic acid-pYEEIE] (Caffeoyl-[pY]EEIE-OH), on FES, the Kd stood at 0.024 ± 0.0049 µM and the remaining activity at 10 µM is 2.2 ± 0.4%. The percent of DMSO vehicle control at 10 µM on MIST turned out to be 72.9 ± 1.4%. Binding at CBL was put at a Kd of 11 µM.
On to `O=C(CCl)Nc1cccc(CNC(=O)[C@H](Cc2ccc(OP(=O)(O)O)cc2)NC(=O)Cc2ccc(F)cc2)c1` [MN551], for which, on SOCS2, the Kd is 2.18 µM. Moreover, the remaining activity at 10 µM on FES (primary screen, 10 μM) was 82.1 ± 4.3%; on MIST (primary screen, 10 μM) it was 102%.
With `NC(=O)CC[C@H](NC(=O)[C@@H]1CC[C@@H]2CCN(C(=O)CCCCCC#Cc3cccc4c3CN(C3CCC(=O)NC3=O)C4=O)C[C@H](NC(=O)c3cc4cc(C(F)(F)P(=O)(O)O)ccc4[nH]3)C(=O)N21)C(=O)NC(c1ccccc1)c1ccccc1` (some centres unmarked) [SD-36], the Kd on STAT6 [1] was 11.3 µM; at STAT1, 1.09 µM; at STAT3, 0.0444 µM; at STAT2 it was 4.88 µM; at STAT5A, 6.18 µM; on STAT5B [2], 11.7 µM. Moreover, the Kd on STAT4 [3] was 0.804 µM. For the same compound, the remaining activity at 10 µM on FES came to 46.3 ± 7.5%. The percent of DMSO vehicle control at 10 µM at MIST turned out to be 104 ± 8.6%.
`CC(=O)N1CC[C@H]2CC[C@@H](C(=O)N[C@@H](CCC(N)=O)C(=O)NC(c3ccccc3)c3ccccc3)N2C(=O)[C@@H](NC(=O)c2cc3cc(C(F)(F)P(=O)(O)O)ccc3[nH]2)C1` [SI-109]: the dissociation constant Kd is 3.37 µM on STAT6 [1]; 1.27 µM on STAT1; 0.0512 µM at STAT3; 6.63 µM at STAT2; 1.98 µM on STAT4 [3]. In addition, on FES, the remaining activity at 10 µM was 160%. Moreover, the percent of DMSO vehicle control at 10 µM on MIST stood at 104%.
Turning to `C/C(=C\C(=O)N[C@H](C(=O)N1CCC[C@H]1C(=O)N(c1ccccc1)c1ccc(I)cc1)C(C)(C)C)c1ccc(OP(=O)(O)O)cc1` [STAT6-IN-1], in the test with STAT6 [4], the IC50 is 0.028 µM. Further, the remaining activity at 10 µM at FES (primary screen, 10 μM) turned out to be 66.3 ± 6.4%; on MIST (primary screen, 10 μM), 88.7 ± 5.9%. For the same compound, on CBL, the equilibrium dissociation constant (Kd) stood at 8.1 ± 1.3 µM.
For the compound `CC(C)(C)[C@H](NC(=O)/C=C/c1ccc(OP(=O)(O)O)cc1)C(=O)N1CCC[C@H]1C(=O)N(c1ccccc1)c1ccc(I)cc1` [STAT6-IN-3], the IC50 in the test with STAT6 [4] is 0.044 µM. In addition, the remaining activity at 10 µM on FES (primary screen, 10 μM) is 82 ± 13.1%; on MIST (primary screen, 10 μM), 102 ± 8.1%.
With `O=C(COc1ccc2cc(C(=O)Nc3ccccc3)ccc2c1)NCc1ccc(OP(=O)(O)O)c(OP(=O)(O)O)c1` [Stafib-1], the values for the Ki on STAT6 [5], on STAT4 [6] and on STAT5B [7] were 3.47 µM, 3.29 µM and 0.044 µM, respectively. Further, the remaining activity at 10 µM at FES (primary screen, 10 μM) is 116%; at MIST (primary screen, 10 μM) it was 96.8 ± 9.3%.

These data come from PMC12951562, “SH2scan: Mapping SH2 Domain-Ligand Binding Selectivity for Inhibitors and Degraders” (Journal of Medicinal Chemistry, 2026).
